# Patent US8410105B2, “Pyridazinyl amine derivatives, the use thereof in the preparation of picorna virus inhibitors” (Institute of Pharmacology and Toxicology Academy of …, priority 2005, dated 2013)
# Experiments:
# Rhinovirus-3(HRV-3) [1] = test: Preventive administration: drug pre-mixed with virus, protection of HeLa cells from CPE; format: cell-based; details: drug 100 ng/ml, virus about 100 TCID50, 33° C., three days, FIG. 1
# Experimental: (§1) HeLa cells (self-preserved in the laboratory)
# (§2) Rhinovirus-3(HRV-3) (ATCC: VR-1113)
# Principle: the drug and the virus were pre-mixed and incubated to block the procedure of viral uncoating and invasion into cells.
# Methods: the drug at a concentration of 100 ng/ml was placed into a 12-well plate, then viral dose at TCID50 value of about 100 was added, after 0.5 h, 500,000 cells were added into each well, and incubated at 33° C. After three days, when the control group presented 100% cytopathic effect (CPE), the effects of the drug for preventing cells from being phagocytized were observed, and expressed as cell protection rate (%).
# rhinovirus = test: Ex vivo anti-rhinovirus screening: ACh-induced tension of rabbit tracheal rings exposed to rhinovirus; details: for Tension, average: drug 100 μg/ml plus rhinovirus, rabbit tracheal rings
# Rhinovirus-3(HRV-3) [2] = test: Therapeutic administration: drug added after viral infection of adherent HeLa cells, protection from CPE; format: cell-based; details: drug 100 ng/ml added 0.5 h after virus (about 100 TCID50), 33° C., three days, FIG. 2
# Experimental: as §1, §2
# Method: 500,000 cells were added into each well, incubated at 33° C. overnight for adherence, then viral dose at TCID50 value of about 100 was added, the culture medium was removed by absorption after 0.5 h, the drug was added into a 12-well plate at a concentration of 100 ng/ml, the total volume of the reaction system was 2 ml. After three days, when the virus control group presented 100% cytophagocytesis (CPE), the effects of the drug for preventing cells from being phagocytized were observed.
molecule,measurement,setting,value
"4-{2-[4-(3,6-dichloropyridazin-4-yl)-piperazin]-1-yl)-ethoxy]-benzoic acid isopropyl ester [Example 13]","effects of the drug for preventing cells from being phagocytized, cell protection rate",Rhinovirus-3(HRV-3) [1],better effects
"Cc1cccc(C)c1OCCN1CCN(c2cc(Cl)nnc2Cl)CC1 [Example 4, 3,6-dichloro-4-{4-[2-(2,6-dimethyl-phenoxyethyl)]-piperazin-1-yl}pyridazine]","effects of the drug for preventing cells from being phagocytized, cell protection rate",Rhinovirus-3(HRV-3) [1],better effects
"CCOC(=O)c1ccc(OCCN2CCN(c3cc(Cl)nnc3Cl)CC2)nc1 [Example 31, 6-{2-[4-(3,6-dichloro-pyridazin-4-yl)-piperazin-1-yl]-ethoxy}-nicotinic acid ethyl ester]","effects of the drug for preventing cells from being phagocytized, cell protection rate",Rhinovirus-3(HRV-3) [1],better effects
same,"Tension, average",rhinovirus; Ach concentration (log M) −3,1.95 g
same,"Tension, average",rhinovirus; Ach concentration (log M) −3.7,1.86 g
same,"Tension, average",rhinovirus; Ach concentration (log M) −4,1.72 g
same,"Tension, average",rhinovirus; Ach concentration (log M) −4.3,1.54 g
same,"Tension, average",rhinovirus; Ach concentration (log M) −4.7,1.30 g
same,"Tension, average",rhinovirus; Ach concentration (log M) −5,1.00 g
same,"Tension, average",rhinovirus; Ach concentration (log M) −5.3,0.73 g
same,"Tension, average",rhinovirus; Ach concentration (log M) −5.7,0.35 g
same,"Tension, average",rhinovirus; Ach concentration (log M) −6,0.11 g
same,"Tension, average",rhinovirus; Ach concentration (log M) −7,0.00 g
same,effect on the rhinovirus-caused excessive increase of Ach-induced tracheal smooth muscular tension,"rhinovirus; drug 100 μg/ml, FIG. 3",obviously inhibit the excessive increase of Ach-induced tracheal smooth muscular tension caused by rhinovirus
same,effects of the drug for preventing cells from being phagocytized,Rhinovirus-3(HRV-3) [2],better effects
"COC(=O)c1ccc(OCCN2CCN(c3cc(Cl)nnc3Cl)CC2)nc1 [Example 32, 6-{2-[4-(3,6-dichloropyridazin-4-yl)piperazin-1-yl]-ethoxy}-nicotinic acid methyl ester]","effects of the drug for preventing cells from being phagocytized, cell protection rate",Rhinovirus-3(HRV-3) [1],better effects
